Laboratory results taken from patent publication US20250319046A1, “PHENYLALANINE-BASED LAT1 INHIBITORS AND USES THEREOF” (MAXYMUNE THERAPEUTICS, INC., priority 2024, published 2025).

target: LAT1 (Homo sapiens (Human), UniProt Q01650); assay: LAT1 uptake inhibition assay: [3H]-gabapentin competition uptake in LN229 cells; assay type: cell-based; conditions: [3H]-gabapentin uptake, 15 min incubation in PBS, read-out: IC50, the concentration of test compound at which the [3H]-GP uptake was inhibited by 50%
Description: LAT1 Uptake Inhibition Assay
The ability of compounds to interact with LAT1 was measured using a radiolabeled competition uptake assay with [^3H]-Gabapentin ([^3H]-GP) (Perkin Elmer) in 96-well plates with LN229 cells (ATCC®). Ten (10)×10^3 (10,000) cells/well were plated in white, clear bottom plates and were allowed to grow for three (3) days. On the fourth day, the cells were washed and then incubated with 50,000 counts per minute (cpm) of [^3H]-GP in phosphate buffered saline (PBS) (VWR International) with increasing concentrations of test compounds in at least triplicate for 15 min. At end of the assay time, the incubation solution was removed, and plates were washed three times (3×) with 100 μL of ice-cold PBS buffer. One-hundred fifty (150) […] of scintillation fluid (VWR International) was added to each well, and the radioactivity retained within the cells was measured on a 96-well scintillation counter. Background uptake ([^3H]-GP uptake in the presence of 10 mM non-radiolabeled gabapentin (GP)) (MedKoo) was subtracted and data were normalized to the DMSO control ([^3H]-GP uptake in the absence of any competitor). Data were fitted to the Michaelis-Menten equation using GraphPad Prism (Version 8.2.0).

Chain of LAT1 (Q01650 whole entry): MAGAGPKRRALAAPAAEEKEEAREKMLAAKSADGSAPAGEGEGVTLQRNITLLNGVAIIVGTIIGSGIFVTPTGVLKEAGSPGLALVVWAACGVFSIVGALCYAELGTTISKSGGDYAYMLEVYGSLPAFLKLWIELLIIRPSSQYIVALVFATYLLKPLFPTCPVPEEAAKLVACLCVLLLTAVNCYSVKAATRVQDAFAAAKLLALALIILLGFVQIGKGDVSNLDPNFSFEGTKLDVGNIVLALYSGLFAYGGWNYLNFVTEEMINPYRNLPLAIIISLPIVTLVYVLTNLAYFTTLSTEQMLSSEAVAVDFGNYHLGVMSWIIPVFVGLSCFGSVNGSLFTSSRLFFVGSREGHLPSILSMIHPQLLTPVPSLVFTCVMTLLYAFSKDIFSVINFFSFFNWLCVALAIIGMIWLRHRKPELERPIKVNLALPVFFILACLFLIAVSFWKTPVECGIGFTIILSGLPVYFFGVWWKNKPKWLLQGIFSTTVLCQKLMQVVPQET
Chain of LAT1 (P08195 whole entry partner): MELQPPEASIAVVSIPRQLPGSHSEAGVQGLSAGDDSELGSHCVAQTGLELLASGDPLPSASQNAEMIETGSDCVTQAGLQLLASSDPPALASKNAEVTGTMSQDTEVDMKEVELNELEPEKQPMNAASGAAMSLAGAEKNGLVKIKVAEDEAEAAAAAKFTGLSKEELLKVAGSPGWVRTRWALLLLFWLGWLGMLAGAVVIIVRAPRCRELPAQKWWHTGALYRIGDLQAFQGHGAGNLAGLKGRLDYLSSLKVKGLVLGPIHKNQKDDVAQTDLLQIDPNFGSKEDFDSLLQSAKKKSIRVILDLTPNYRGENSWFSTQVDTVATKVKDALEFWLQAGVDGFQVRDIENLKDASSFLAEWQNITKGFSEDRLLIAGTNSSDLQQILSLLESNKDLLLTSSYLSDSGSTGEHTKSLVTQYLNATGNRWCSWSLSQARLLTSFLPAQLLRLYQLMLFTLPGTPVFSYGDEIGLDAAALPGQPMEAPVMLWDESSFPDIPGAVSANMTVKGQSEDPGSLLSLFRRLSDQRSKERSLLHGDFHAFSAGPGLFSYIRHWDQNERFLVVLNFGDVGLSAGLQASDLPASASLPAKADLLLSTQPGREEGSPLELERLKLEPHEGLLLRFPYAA

| SMILES | IC50 |
| --- | --- |
| CCCCS(=O)(=O)Nc1ccc(C)c(C[C@H](N)C(=O)O)c1 [Compound 58, (S)-2-Amino-3-(5-(butylsulfonamido)-2-methylphenyl)propanoic Acid] | 0.1 to 1 µM |
| N[C@@H](Cc1cccc(S(N)(=O)=O)c1)C(=O)O [Compound 71, (S)-2-Amino-3-(3-sulfamoylphenyl)propanoic Acid] | ≥ 10 µM |
| N[C@@H](Cc1ccc(S(N)(=O)=O)cc1)C(=O)O [Compound 74, (S)-2-Amino-3-(4-sulfamoylphenyl)propanoic acid] | ≥ 10 µM |
| CS(=O)(=O)Nc1cc(C[C@H](N)C(=O)O)cc(NS(C)(=O)=O)c1 [Compound 61, (S)-2-Amino-3-(3,5-di(methylsulfonamido)phenyl)propanoic Acid] | ≥ 10 µM |
| N[C@@H](Cc1cccc(S(=O)(=O)N2CCCCC2)c1)C(=O)O [Compound 78, (S)-2-Amino-3-(3-(piperidin-1-ylsulfonyl)phenyl)propanoic Acid] | 1 to 10 µM |
| CNS(=O)(=O)c1cccc(C[C@H](N)C(=O)O)c1 [Compound 72, (S)-2-Amino-3-(3-(N-methylsulfamoyl)phenyl)propanoic Acid] | ≥ 10 µM |
| Cc1ccc(CS(=O)(=O)Cc2ccccc2)cc1C[C@H](N)C(=O)O [Compound 56, (S)-2-Amino-3-(5-((benzylsulfonyl)methyl)-2-methylphenyl)propanoic Acid] | 0.1 to 1 µM |
| Cc1ccc([S+]([O-])Cc2ccccc2)cc1C[C@H](N)C(=O)O (stereo partly drawn) [Compound 64, (2S)-2-Amino-3-(5-(benzylsulfinyl)-2-methylphenyl)propanoic Acid] | 1 to 10 µM |
| Cc1ccc(CSCc2ccccc2)cc1C[C@H](N)C(=O)O [Compound 55, (S)-2-Amino-3-(5-((benzylthio)methyl)-2-methylphenyl)propanoic Acid] | 0.1 to 1 µM |
| Cc1ccc(S(=O)(=O)N(c2ccc(C)c(C[C@H](N)C(=O)O)c2)S(=O)(=O)c2ccc(C)cc2)cc1 [Compound 48, (S)-2-Amino-3-(2-methyl-5-((4-methyl-N-tosylphenyl)sulfonamido)phenyl)propanoic Acid] | 0.1 to 1 µM |
| CS(=O)(=O)Nc1ccc(C[C@H](N)C(=O)O)cc1 [Compound 70, (S)-2-Amino-3-(4-(methylsulfonamido)phenyl)propanoic Acid] | ≥ 10 µM |
| Cc1ccc(NS(=O)(=O)C2CCOCC2)cc1C[C@H](N)C(=O)O [Compound 12, (S)-2-Amino-3-(2-methyl-5-((tetrahydro-2H-pyran)-4-sulfonamido)phenyl)propanoic Acid] | 1 to 10 µM |
| Cc1ccc(NS(=O)(=O)C[C@@]23CC[C@H](CC2=O)C3(C)C)cc1C[C@H](N)C(=O)O [Compound 22, (S)-2-Amino-3-(5-((((1R,4R)-7,7-dimethyl-2-oxobicyclo[2.2.1]heptan-1-yl)methyl)sulfonamido)-2-methylphenyl)propanoic Acid] | 1 to 10 µM |
| Cc1ccc(NS(=O)(=O)C2CCCCC2)cc1C[C@H](N)C(=O)O [Compound 26, (S)-2-Amino-3-(5-(cyclohexanesulfonamido)-2-methylphenyl)propanoic Acid] | 0.1 to 1 µM |
| Cc1ccc(S(=O)(=O)Nc2cc(C[C@H](N)C(=O)O)cc(NS(=O)(=O)c3ccc(C)cc3)c2)cc1 [Compound 63, (S)-2-Amino-3-(3,5-bis((4-methylphenyl)sulfonamido)phenyl)propanoic Acid] | 1 to 10 µM |
| Cc1ccc(C[S+]([O-])Cc2ccccc2)cc1C[C@H](N)C(=O)O (stereo partly drawn) [Compound 60, (2S)-2-Amino-3-(5-((benzylsulfinyl)methyl)-2-methylphenyl)propanoic Acid] | 0.1 to 1 µM |
| Cc1ccc(NS(=O)(=O)C2CC2)cc1C[C@H](N)C(=O)O [Compound 14, (S)-2-Amino-3-(5-(cyclopropanesulfonamido)-2-methylphenyl)propanoic Acid] | 1 to 10 µM |
| N[C@@H](Cc1cc(NS(=O)(=O)c2ccccc2)cc(NS(=O)(=O)c2ccccc2)c1)C(=O)O [Compound 62, (S)-2-Amino-3-(3,5-bis(phenylsulfonamido)phenyl)propanoic Acid] | ≥ 10 µM |

Further lines, results first:

| IC50 | SMILES |
| --- | --- |
| 0.1 to 1 µM | Cc1ccc(NS(=O)(=O)c2cc(Cl)cc(Cl)c2)cc1C[C@H](N)C(=O)O [Compound 43, (S)-2-Amino-3-(5-((3,5-dichlorophenyl)sulfonamido)-2-methylphenyl)propanoic Acid] |
| 1 to 10 µM | COc1cc(NS(=O)(=O)c2cccc3c(N(C)C)cccc23)ccc1C[C@H](N)C(=O)O [Compound 8, (S)-2-Amino-3-(4-((5-(dimethylamino)naphthalene)-1-sulfonamido)-2-methoxyphenyl)propanoic Acid] |
| 1 to 10 µM | N[C@@H](Cc1ccccc1S(=O)(=O)Nc1ccc(Cl)cc1)C(=O)O [Compound 81, (S)-2-Amino-3-(2-(N-(4-chlorophenyl)sulfamoyl)phenyl)propanoic Acid] |
| 0.1 to 1 µM | N[C@@H](Cc1cccc(NS(=O)(=O)c2ccccc2)c1)C(=O)O [Compound 37, (S)-2-Amino-3-(3-(phenylsulfonamido)phenyl)propanoic Acid] |
| 1 to 10 µM | CN(C)c1cccc2c(S(=O)(=O)Nc3ccc(C[C@H](N)C(=O)O)cc3)cccc12 [Compound 4, (S)-2-amino-3-(4-((5-(dimethylamino)naphthalene)-1-sulfonamido)phenyl)propanoic acid] |
| 0.1 to 1 µM | Cc1ccc(NS(=O)(=O)c2c(Cl)cccc2Cl)cc1C[C@H](N)C(=O)O [Compound 42, (S)-2-Amino-3-(5-((2,6-dichlorophenyl)sulfonamido)-2-methylphenyl)propanoic Acid] |
| 0.1 to 1 µM | Cc1ccc(S(=O)(=O)NCc2ccc(C)c(C[C@H](N)C(=O)O)c2)cc1 [Compound 66, (S)-2-Amino-3-(2-methyl-5-(((4-methylphenyl)sulfonamido)methyl)phenyl)propanoic Acid] |
| 0.1 to 1 µM | Cc1ccc(S(=O)(=O)Nc2ccc(C)c(C[C@H](N)C(=O)O)c2)cc1 [Compound 7, (S)-2-Amino-3-(2-methyl-5-((4-methylphenyl)sulfonamido)phenyl)propanoic Acid] |
| 0.1 to 1 µM | Cc1ccc(S(=O)(=O)Nc2ccccc2Br)cc1C[C@H](N)C(=O)O [Compound 75, (S)-2-Amino-3-(5-(N-(2-bromophenyl)sulfamoyl)-2-methylphenyl)propanoic Acid] |
| 1 to 10 µM | Cc1ccc(NS(=O)(=O)c2cccc3ncccc23)cc1C[C@H](N)C(=O)O [Compound 9, (S)-2-Amino-3-(2-methyl-5-(quinoline-5-sulfonamido)phenyl)propanoic Acid] |
| 0.1 to 1 µM | Cc1ccc(NS(=O)(=O)c2ccc(-c3ccccc3)cc2)cc1C[C@H](N)C(=O)O [Compound 17, (S)-3-(5-([1,1′-Biphenyl]-4-sulfonamido)-2-methylphenyl)-2-aminopropanoic Acid] |
| 0.1 to 1 µM | Cc1ccc(S(=O)(=O)Nc2cccc(S(=O)(=O)Nc3ccc(C)c(C[C@H](N)C(=O)O)c3)c2)cc1 [Compound 32, (S)-2-Amino-3-(2-methyl-5-((3-((4-methylphenyl)sulfonamido)phenyl)sulfonamido)phenyl)propanoic Acid] |
| 1 to 10 µM | Cc1ccc(NS(=O)(=O)c2ccc(Cl)c3nonc23)cc1C[C@H](N)C(=O)O [Compound 24, (S)-2-Amino-3-(5-((7-chlorobenzo[c][1,2,5]oxadiazole)-4-sulfonamido)-2-methylphenyl)propanoic Acid] |
| ≥ 10 µM | Cc1ccc(NS(=O)(=O)c2c[nH]cn2)cc1C[C@H](N)C(=O)O [Compound 31, (S)-3-(5-(1H-imidazole-4-sulfonamido)-2-methylphenyl)-2-aminopropanoic Acid] |
| 0.1 to 1 µM | CN(C)c1cccc2c(S(=O)(=O)Nc3ccc(Cl)c(C[C@H](N)C(=O)O)c3)cccc12 [Compound 15, (S)-2-Amino-3-(2-chloro-5-((5-(dimethylamino)naphthalene)-1-sulfonamido)phenyl)propanoic Acid] |
| 1 to 10 µM | Cc1ccc(NS(=O)(=O)c2cccnc2)cc1C[C@H](N)C(=O)O [Compound 11, (S)-2-Amino-3-(2-methyl-5-(pyridine-3-sulfonamido)phenyl)propanoic Acid] |
| 0.1 to 1 µM | Cc1ccc(NS(=O)(=O)c2cccc3c(N(C)C)cccc23)cc1C[C@H](N)C(=O)O [Compound 2, (S)-2-Amino-3-(5-((5-(dimethylamino)naphthalene)-1-sulfonamido)-2-methylphenyl)propanoic Acid] |
| 0.1 to 1 µM | Cc1cc(S(=O)(=O)Nc2ccc(Cl)cc2)ccc1C[C@H](N)C(=O)O [Compound 85, (S)-2-Amino-3-(4-(N-(4-chlorophenyl)sulfamoyl)-2-methylphenyl)propanoic Acid] |
| 1 to 10 µM | Cc1ccc(NS(=O)(=O)C(C)C)cc1C[C@H](N)C(=O)O [Compound 20, (S)-2-Amino-3-(2-methyl-5-((1-methylethyl)sulfonamido)phenyl)propanoic Acid] |
| 0.1 to 1 µM | Cc1ccc(S(=O)(=O)Cc2ccccc2)cc1C[C@H](N)C(=O)O [Compound 65, (S)-2-Amino-3-(5-(benzylsulfonyl)-2-methylphenyl)propanoic Acid] |
| 1 to 10 µM | Cc1ccc(NS(=O)(=O)c2cccc3nonc23)cc1C[C@H](N)C(=O)O [Compound 25, (S)-2-Amino-3-(5-(benzo[c][1,2,5]oxadiazole-4-sulfonamido)-2-methylphenyl)propanoic Acid] |
| 0.1 to 1 µM | Cc1ccc(NS(=O)(=O)c2cccc3ccccc23)cc1C[C@H](N)C(=O)O [Compound 6, (S)-2-Amino-3-(2-methyl-5-(naphthalene-1-sulfonamido)phenyl)propanoic Acid] |
